# In patent US20180221435A1, “ITCH TREATMENT USING A COMBINATION OF NEUROKININ-1, GASTRIN RELEASING PEPTIDE, AND GLUTAMATE RECEPTOR ANTAGONISTS” (The Regents of the University of California, priority 2013, published 2018):
# “Also recorded” adds a separate entry of the source.
# Legend:
# [1] = tested on: superficial dorsal horn neurons; experiment: In vivo single-unit recording, id chloroquine-evoked firing, spinal superfusion of antagonists; parameters: species or system mice
# Procedure: (§1) The single-unit recording from the lumbar spinal cord was conducted as previously detailed [Akiyama T et al., Journal of neurophysiology 102(4):2176-2183 (2009); Akiyama T et al., The Journal of neuroscience: the official journal of the Society for Neuroscience 29(20):6691-6699 (2009)]. Anesthesia was induced by sodium pentobarbital (60 mg/kg ip) and maintained by supplemental injections (10-20 mg/kg/hr). A gravity-driven perfusion system allowed artificial cerebrospinal fluid (Krebs: 117 mM NaCl, 3.6 mM KCl, 2.5 mM CaCl2, 1.2 mM MgCl2, 1.2 mM NaH2PO4, 25 mM NaHCO3 and 11 mM glucose which was equilibrated with 95% 02 and 5% CO2 at 37° C.) to be superfused continually over the exposed lumbosacral spinal cord [Akiyama T et al., PloS one 6(7):e22665 (2011)]. A tungsten microelectrode recorded single-unit activity in the lumbar spinal cord. A chemical search strategy [Akiyama T et al., Journal of neurophysiology 102(4):2176-2183 2009; Akiyama T et al., The Journal of neuroscience: the official journal of the Society for Neuroscience 29(20):6691-6699 (2009)] was used to identify and isolate chloroquine-responsive units. Our search strategy was intended to maximize the chance of isolating a chloroquine-responsive neuron; it was assumed that such neurons either gave rise to ascending projections, or served as interneurons in segmental scratch-reflex circuitry, and no attempt was presently made to distinguish between these possibilities.
# Briefly, a small (˜0.25 μl) intradermal (id) microinjection of chloroquine (100 μg/μl) was made in the ventral hindpaw and a spontaneously active unit in the superficial lumbar dorsal horn (depth<300 um) was isolated. After the spontaneous activity had waned, chloroquine (1 μl, 100 μg/μl) was injected again at the same site through the same needle. […] Responses were usually recorded for at least 30 minutes, although in many cases unit firing declined over a shorter period.
# Action potentials were recorded to a computer and counted using Chart software (AD Instruments, Colorado Springs Colo.) and Spike2 software (CED Instruments). Ongoing responses elicited by chloroquine, histamine, or AITC were averaged at 20-second intervals before, during and after the antagonist application, and compared by one way repeated-measures analysis of variance (ANOVA) followed by post-hoc Bonferroni test, with p<0.05 set as significant. The mean firing rate was calculated over a 20-second period 40 seconds after the antagonist application, and compared by one way ANOVA followed by post-hoc Bonferroni test, with p<0.05 set as significant. The criterion for decrease in ongoing firing was >70% decrease below the ongoing activity elicited by pruritogen over a 20-second period 40 seconds after the antagonist application. Mean peak responses elicited by noxious pinch were compared by one way repeated-measures ANOVA followed by post-hoc Bonferroni test, with p<0.05 set as significant. At the end of each experiment, an electrolytic lesion was made at the spinal cord recording site. The spinal cord was postfixed in 10% buffered formalin, cut in 50 μm frozen sections, and examined under the light microscope to identify lesions.
# [2] = tested on: superficial dorsal horn neurons; experiment: In vivo single-unit recording, id histamine-evoked firing, spinal superfusion of antagonists; parameters: species or system mice
# Procedure: Akiyama T et al., The Journal of neuroscience: the official journal of the Society for Neuroscience 29(20):6691-6699 (2009)]. Anesthesia was induced by sodium pentobarbital (60 mg/kg ip) and maintained by supplemental injections (10-20 mg/kg/hr). […] A tungsten microelectrode recorded single-unit activity in the lumbar spinal cord. A chemical search strategy [Akiyama T et al., Journal of neurophysiology 102(4):2176-2183 2009; […] Following mechanical stimulation, histamine (50 μg) was injected id within the same receptive field at a different location via a separate injection cannula. Following the id histamine injection, we tested the effects of antagonists for the receptors of NK1, GRP, or AMPA/kainate in the same manner as described above for chloroquine. […] Following the AITC application, we tested the effects of the NK-1 receptor antagonist, the AMPA/kainate receptor antagonist, or a combination of both antagonists in the same manner as described above for chloroquine. Action potentials were recorded to a computer and counted using Chart software (AD Instruments, Colorado Springs Colo.) and Spike2 software (CED Instruments). […] Mean peak responses elicited by noxious pinch were compared by one way repeated-measures ANOVA followed by post-hoc Bonferroni test, with p<0.05 set as significant. At the end of each experiment, an electrolytic lesion was made at the spinal cord recording site.
# [3] = tested on: superficial dorsal horn neurons; experiment: Baseline activity of superficial dorsal horn neurons before and after antagonist application; format: in vivo, mice; details: ± SEM
# Procedure: as §1
# There was no significant effect of any of the antagonists on the baseline activity of superficial dorsal horn neurons that were subsequently show to respond to pruritogens. […] Values prior to, and after administration of each antagonist individually or in combination, are as follows. NK-1 antagonist L-733060: pre-application 0.88 Hz±0.23 (SEM), post-antagonist 0.72 Hz±0.19 (n=10). GRPR antagonist RC-3095: pre-application 0.54 Hz±0.54, post-antagonist: 0.53 Hz±0.53 (n=4). CNQX: pre-application 0.53 Hz±0.14, post-antagonist 0.64 Hz±0.21 (n=22). CNQX+L-733060: pre-application 0.52 Hz±0.17, post-antagonists 0.43 Hz±0.11 (n=26). CNQX+L-733060+RC-3095: pre-application 0.14 Hz±0.06, post-antagonists 0.17 Hz±0.06 (n=9).
smiles,measurement,setting,value
N#Cc1cc2[nH]c(=O)c(=O)[nH]c2cc1[N+](=O)[O-] [CNQX],chloroquine-evoked firing compared to vehicle superfusion,"[1]; 40-60 s of superfusion, normalized firing, vs vehicle",significantly attenuated chloroquine-evoked firing
same,chloroquine-evoked firing in NS cells,"[1]; NS units, vs vehicle",significantly reduced
same,chloroquine-evoked firing in WDR cells,"[1]; WDR units, vs vehicle",significantly reduced
same,"chloroquine-evoked firing, effect of spinal superfusion",[1]; relative to chloroquine-evoked response prior to spinal superfusion,significantly attenuated during and after spinal superfusion; also recorded: reduced
same,histamine-evoked response of NS units,"[2]; NS units, vs vehicle",significantly reduced
same,histamine-evoked response of WDR units,"[2]; WDR units, vs vehicle",significantly reduced
same,"histamine-evoked firing, effect of spinal superfusion",[2]; all units,significantly attenuated histamine-evoked firing to a level not different from that elicited by id injection of vehicle (saline); also recorded: almost completely abolished histamine-evoked firing
same,"baseline neuronal firing rate, post-antagonist",[3]; averaged over 1 min following antagonist application,0.64 Hz
same,"baseline neuronal firing rate, pre-application",[3]; averaged over 1 min prior to antagonist application,0.53 Hz
